# Source: patent US20050112573A1, “Method of detecting toxic substance” (priority 2001, published 2005)
# Test system: yeast genes (level of expressed mRNA)
# Assay: DNA chip analysis of expressed mRNA of yeast genes after 2 h culture with a toxic chemical substance
# Format: cell-based, Saccharomyces cerevisiae S288C
# Experimental: Yeast (Saccharomyces cerevtisiae S288C (α SUC2mal mel gap2 CUP1)) were cultured at 25° C. on YPD medium (yeast extract 1%, polypepton 2%, glucose 2%). One of toxic chemical substances was added to the cell at logarithmic growth phase, and the cell was further cultured for two hours. Cell was cultured without any chemical substance in the same condition, and was used as control. Concentrations of the chemical substances were defined to inhibit the growth of the yeast but not lead to death.
# After the completion of cultivation, the culture was centrifuged to collect the cells. To the cells, sodium acetate buffer (50 mM sodium acetate, 10 mM EDTA, 1% SDS) was added, and the mixture was shaken at 65° C. for five minutes, followed by returning to room temperature, and obtaining the supernatant, which procedure was repeated two times. To the supernatant, ½ amount of a solution of phenol/chloroform was added, and the mixture was centrifuged to give a supernatant, which was added with an equal amount of chloroform, and the mixture was centrifuged to give a supernatant. To the supernatant, an equal amount of isopropanol containing 0.3 M sodium acetate was added, and the mixture was allowed to stand at room temperature for 30 minutes, after which the mixture was centrifuged to give a sediment of the whole RNAs. Seventy % ethanol was added to the sediment, and the mixture was again centrifuged to give a sediment, which was then dried and dissolved in water. mRNA was isolated from the whole RNAs as followings. In view of the fact that a poly A chain is attached to the 3′ terminus of mRNA, a polynucleotide having a poly T structure which was immobilized on the surface of latex beads was used to trap the mRNA, and then the mRNA was washed and eluted with spine column (Oligotex-dT30<Super>mRNA Purification Kit, Takara). Reverse transcription of the mRNA was conducted with a reverse transcriptase (Super Script II Reverse Transcriptase; catalogue No. 18064-014, GibcoBRL) using fluorescence-labeled nucleotides to give cDNAs that were introduced with Cy3-dUTP or Cy5-dUTP during the reverse transcription.
# The labeled cDNAs were dissolved in TE buffer (10 mM Tris-HCl/1 mM EDTA, pH8.0), and the solution was dropped on the DNA chip containing the whole genes of yeast (DNA Chip Research Inc. Japan) so that the cDNAs were hybridized on the DNA chip at 65° C. for over 12 hours. The fluoresces intensity of the DNA chip was read with a scanner, and the ratio relative to the fluorescence intensity resulting from the absence of chemical substance was estimated as the following, which is shown in Tables 1 to 9: [formula]
# In the Tables, “Intensity” indicated in the rightmost column is a value of the level of expressed mRNA of each gene in control cells as divided by the average level of the expressions of the whole genes.
smiles,measurement,setting,value
"C=CC=O [(14), acrolein]",The level of expressed mRNA in the presence of chemical substance/absence: YGR293C,gene YGR293C,1.0
same,The level of expressed mRNA in the presence of chemical substance/absence: YHL006C,gene YHL006C,1.1
same,The level of expressed mRNA in the presence of chemical substance/absence: YHL021C,gene YHL021C,1.1
same,The level of expressed mRNA in the presence of chemical substance/absence: YHL037C,gene YHL037C,0.9
same,level of expressed mRNA in the presence of chemical substance/in its absence,gene YHR037W,1.1
same,The level of expressed mRNA in the presence of chemical substance/absence: YHR083W,gene YHR083W,1.6
same,level of expressed mRNA in the presence of chemical substance/in its absence,gene YHR092C,1.6
same,The level of expressed mRNA in the presence of chemical substance/absence: YHR095W,gene YHR095W,0.9
same,The level of expressed mRNA in the presence of chemical substance/absence: YHR105W,gene YHR105W,1.2
same,The level of expressed mRNA in the presence of chemical substance/absence: YHR134W,gene YHR134W,1.6
same,level of expressed mRNA in the presence of chemical substance/in its absence,gene YHR137W,0.8
same,The level of expressed mRNA in the presence of chemical substance/absence: YHR180W,gene YHR180W,1.5
same,The level of expressed mRNA in the presence of chemical substance/absence: YHR181W,gene YHR181W,1.6
same,level of expressed mRNA in the presence of chemical substance/in its absence,gene YHR190W,1.3
same,level of expressed mRNA in the presence of chemical substance/in its absence,gene YIL033C,0.7
same,The level of expressed mRNA in the presence of chemical substance/absence: YIL108W,gene YIL108W,1.0
same,The level of expressed mRNA in the presence of chemical substance/absence: YIL127C,gene YIL127C,1.3
same,level of expressed mRNA in the presence of chemical substance/in its absence,gene YIL154C,0.9
same,The level of expressed mRNA in the presence of chemical substance/absence: YIL165C,gene YIL165C,1.3
same,level of expressed mRNA in the presence of chemical substance/in its absence,gene YIL167W,1.4
same,level of expressed mRNA in the presence of chemical substance/in its absence,gene YIR035C,1.1
same,The level of expressed mRNA in the presence of chemical substance/absence: YJL017W,gene YJL017W,1.0
same,The level of expressed mRNA in the presence of chemical substance/absence: YJL032W,gene YJL032W,1.6
same,The level of expressed mRNA in the presence of chemical substance/absence: YJL037W,gene YJL037W,2.0
same,The level of expressed mRNA in the presence of chemical substance/absence: YJL049W,gene YJL049W,1.8
same,level of expressed mRNA in the presence of chemical substance/in its absence,gene YJL088W,2.0
same,The level of expressed mRNA in the presence of chemical substance/absence: YJL097W,gene YJL097W,1.0
same,level of expressed mRNA in the presence of chemical substance/in its absence,gene YJL132W,1.4
same,level of expressed mRNA in the presence of chemical substance/in its absence,gene YJL196C,0.8
same,The level of expressed mRNA in the presence of chemical substance/absence: YJR030C,gene YJR030C,1.0
same,The level of expressed mRNA in the presence of chemical substance/absence: YJR044C,gene YJR044C,1.3
same,level of expressed mRNA in the presence of chemical substance/in its absence,gene YJR142W,1.3
same,level of expressed mRNA in the presence of chemical substance/in its absence,gene YJR148W,1.3
same,level of expressed mRNA in the presence of chemical substance/in its absence,gene YJR159W,2.0
same,The level of expressed mRNA in the presence of chemical substance/absence: YKL051W,gene YKL051W,0.7
same,The level of expressed mRNA in the presence of chemical substance/absence: YKL059C,gene YKL059C,1.1
same,level of expressed mRNA in the presence of chemical substance/in its absence,gene YKL067W,1.2
same,The level of expressed mRNA in the presence of chemical substance/absence: YKL090W,gene YKL090W,1.4
same,The level of expressed mRNA in the presence of chemical substance/absence: YKL094W,gene YKL094W,1.3
same,The level of expressed mRNA in the presence of chemical substance/absence: YKL097C,gene YKL097C,1.0
same,The level of expressed mRNA in the presence of chemical substance/absence: YKL100C,gene YKL100C,1.0
same,level of expressed mRNA in the presence of chemical substance/in its absence,gene YKR039W,1.2
same,The level of expressed mRNA in the presence of chemical substance/absence: YKR040C,gene YKR040C,3.8
same,The level of expressed mRNA in the presence of chemical substance/absence: YLR097C,gene YLR097C,1.7
same,level of expressed mRNA in the presence of chemical substance/in its absence,gene YLR142W,2.1
same,level of expressed mRNA in the presence of chemical substance/in its absence,gene YLR180W,0.6
same,The level of expressed mRNA in the presence of chemical substance/absence: YLR226W,gene YLR226W,1.1
same,level of expressed mRNA in the presence of chemical substance/in its absence,gene YLR273C,1.3
same,level of expressed mRNA in the presence of chemical substance/in its absence,gene YLR300W,0.6
same,level of expressed mRNA in the presence of chemical substance/in its absence,gene YLR307W,1.9
same,The level of expressed mRNA in the presence of chemical substance/absence: YLR338W,gene YLR338W,0.8
same,The level of expressed mRNA in the presence of chemical substance/absence: YLR339C,gene YLR339C,0.5
same,The level of expressed mRNA in the presence of chemical substance/absence: YLR392C,gene YLR392C,1.1
same,The level of expressed mRNA in the presence of chemical substance/absence: YLR415C,gene YLR415C,0.8
same,The level of expressed mRNA in the presence of chemical substance/absence: YLR427W,gene YLR427W,0.8
same,The level of expressed mRNA in the presence of chemical substance/absence: YML013W,gene YML013W,1.1
same,The level of expressed mRNA in the presence of chemical substance/absence: YML029W,gene YML029W,1.6
same,The level of expressed mRNA in the presence of chemical substance/absence: YML041C,gene YML041C,2.2
same,The level of expressed mRNA in the presence of chemical substance/absence: YML079W,gene YML079W,1.4
same,level of expressed mRNA in the presence of chemical substance/in its absence,gene YML110C,1.4
same,The level of expressed mRNA in the presence of chemical substance/absence: YML118W,gene YML118W,1.0
same,The level of expressed mRNA in the presence of chemical substance/absence: YMR068W,gene YMR068W,1.1
same,The level of expressed mRNA in the presence of chemical substance/absence: YMR071C,gene YMR071C,1.2
same,level of expressed mRNA in the presence of chemical substance/in its absence,gene YMR105C,1.0
same,The level of expressed mRNA in the presence of chemical substance/absence: YMR114C,gene YMR114C,1.5
same,The level of expressed mRNA in the presence of chemical substance/absence: YMR115W,gene YMR115W,1.3
same,The level of expressed mRNA in the presence of chemical substance/absence: YMR160W,gene YMR160W,1.1
same,level of expressed mRNA in the presence of chemical substance/in its absence,gene YMR189W,1.6
same,The level of expressed mRNA in the presence of chemical substance/absence: YMR258C,gene YMR258C,1.0
same,level of expressed mRNA in the presence of chemical substance/in its absence,gene YMR271C,1.8
same,level of expressed mRNA in the presence of chemical substance/in its absence,gene YMR272C,0.8
same,level of expressed mRNA in the presence of chemical substance/in its absence,gene YMR296C,0.7
same,level of expressed mRNA in the presence of chemical substance/in its absence,gene YNL012W,1.0
same,The level of expressed mRNA in the presence of chemical substance/absence: YNL026W,gene YNL026W,0.8
same,level of expressed mRNA in the presence of chemical substance/in its absence,gene YNL037C,1.3
same,level of expressed mRNA in the presence of chemical substance/in its absence,gene YNL045W,0.8
same,The level of expressed mRNA in the presence of chemical substance/absence: YNL058C,gene YNL058C,0.8
same,The level of expressed mRNA in the presence of chemical substance/absence: YNL063W,gene YNL063W,1.1
same,level of expressed mRNA in the presence of chemical substance/in its absence,gene YNL104C,0.9
same,level of expressed mRNA in the presence of chemical substance/in its absence,gene YNL106C,1.1
same,level of expressed mRNA in the presence of chemical substance/in its absence,gene YNL130C,1.0
same,level of expressed mRNA in the presence of chemical substance/in its absence,gene YNL169C,0.9
same,The level of expressed mRNA in the presence of chemical substance/absence: YNL176C,gene YNL176C,0.9
same,The level of expressed mRNA in the presence of chemical substance/absence: YNL181W,gene YNL181W,1.9
same,The level of expressed mRNA in the presence of chemical substance/absence: YNL191W,gene YNL191W,1.0
same,The level of expressed mRNA in the presence of chemical substance/absence: YNL194C,gene YNL194C,3.0
same,The level of expressed mRNA in the presence of chemical substance/absence: YNL200C,gene YNL200C,0.6
same,The level of expressed mRNA in the presence of chemical substance/absence: YNL212W,gene YNL212W,1.0
same,level of expressed mRNA in the presence of chemical substance/in its absence,gene YNL231C,0.9
same,The level of expressed mRNA in the presence of chemical substance/absence: YNL253W,gene YNL253W,1.4
same,The level of expressed mRNA in the presence of chemical substance/absence: YNL265C,gene YNL265C,1.9
same,The level of expressed mRNA in the presence of chemical substance/absence: YNL276C,gene YNL276C,1.5
same,level of expressed mRNA in the presence of chemical substance/in its absence,gene YNL322C,1.2
same,level of expressed mRNA in the presence of chemical substance/in its absence,gene YNR002C,1.2
same,level of expressed mRNA in the presence of chemical substance/in its absence,gene YNR019W,1.0
same,level of expressed mRNA in the presence of chemical substance/in its absence,gene YNR033W,0.9
same,The level of expressed mRNA in the presence of chemical substance/absence: YNR051C,gene YNR051C,1.0
same,level of expressed mRNA in the presence of chemical substance/in its absence,gene YNR059W,1.0
same,The level of expressed mRNA in the presence of chemical substance/absence: YOL026C,gene YOL026C,1.3
same,The level of expressed mRNA in the presence of chemical substance/absence: YOL030W,gene YOL030W,0.6
same,level of expressed mRNA in the presence of chemical substance/in its absence,gene YOL058W,1.5
same,level of expressed mRNA in the presence of chemical substance/in its absence,gene YOL126C,1.2
same,level of expressed mRNA in the presence of chemical substance/in its absence,gene YOL143C,0.7
same,level of expressed mRNA in the presence of chemical substance/in its absence,gene YOL153C,1.5
same,level of expressed mRNA in the presence of chemical substance/in its absence,gene YOL157C,1.2
same,The level of expressed mRNA in the presence of chemical substance/absence: YOR022C,gene YOR022C,1.0
same,The level of expressed mRNA in the presence of chemical substance/absence: YOR087W,gene YOR087W,0.9
same,The level of expressed mRNA in the presence of chemical substance/absence: YOR088W,gene YOR088W,0.4
same,level of expressed mRNA in the presence of chemical substance/in its absence,gene YOR099W,0.7
same,level of expressed mRNA in the presence of chemical substance/in its absence,gene YOR130C,1.3
same,level of expressed mRNA in the presence of chemical substance/in its absence,gene YOR136W,0.9
same,The level of expressed mRNA in the presence of chemical substance/absence: YOR138C,gene YOR138C,0.9
same,The level of expressed mRNA in the presence of chemical substance/absence: YOR155C,gene YOR155C,1.5
same,The level of expressed mRNA in the presence of chemical substance/absence: YOR253W,gene YOR253W,1.3
